According to paper PMC11261597, “Three-Step Enzymatic Remodeling of Chitin into Bioactive Chitooligomers” (Journal of Agricultural and Food Chemistry, 2024):

Target: T1, BsPdaC (Bacillus subtilis, UniProt O34798)
T1 construct: gene pdaC
T1 sequence (O34798 278-467 limits assumed): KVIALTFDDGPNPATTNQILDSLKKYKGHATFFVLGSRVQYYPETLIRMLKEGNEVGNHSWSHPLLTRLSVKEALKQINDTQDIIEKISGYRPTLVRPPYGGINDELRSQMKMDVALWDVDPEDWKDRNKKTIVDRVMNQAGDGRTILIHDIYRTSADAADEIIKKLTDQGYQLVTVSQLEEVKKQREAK
Test: deacetylation followed by HPLC-MS
Format: biochemical
Conditions: 2 mM substrate, 4 μM enzyme, PBS pH 7.5, 37 °C

| Structure (SMILES) | deacetylation followed by HPLC-MS |
| --- | --- |
| CC(=O)N[C@H]1[C@H](O[C@H]2[C@H](O)[C@@H](NC(C)=O)C(O)O[C@@H]2CO)O[C@H](CO)[C@@H](O[C@@H]2O[C@H](CO)[C@@H](O[C@@H]3O[C@H](CO)[C@@H](O)[C@H](O)[C@H]3NC(C)=O)[C@H](O)[C@H]2NC(C)=O)[C@@H]1O (some centres unmarked) [CH4, N,N′,N″,N‴-tetraacetylchitotetraose] | BsPdaC exhibited an effective deacetylation of standard CH4 and CH5 substrates |
| CC(=O)N[C@H]1[C@H](O[C@H]2[C@H](O)[C@@H](NC(C)=O)[C@H](O[C@H]3[C@H](O)[C@@H](NC(C)=O)C(O)O[C@@H]3CO)O[C@@H]2CO)O[C@H](CO)[C@@H](O[C@@H]2O[C@H](CO)[C@@H](O[C@@H]3O[C@H](CO)[C@@H](O)[C@H](O)[C@H]3NC(C)=O)[C@H](O)[C@H]2NC(C)=O)[C@@H]1O (some centres unmarked) [CH5] | BsPdaC exhibited an effective deacetylation of standard CH4 and CH5 substrates |
